In patent publication US11382328B2, “Rapid drug discovery methods for pathogen inactivation” (priority 2019, dated 2022):

Tested on: E. coli strain W3110
Test: Synergy assays: Biolog chemical sensitivity panels with Group IB metal, coefficient of drug interaction (CDI) from relative growth
Assay type: cell-based
Details: for CDI (coefficient of drug interaction), copper mixed with biocide: Copper (mM) section
[1] = 1st of 3 copper concentrations (value not shown), 4th of four biocide concentrations
[2] = 2nd of 3 copper concentrations (value not shown), 3rd of four biocide concentrations
[3] = 2nd of 3 copper concentrations (value not shown), 4th of four biocide concentrations
[4] = 3rd of 3 copper concentrations (value not shown), 4th of four biocide concentrations
[5] = Gold section of Table 5, first of three gold concentrations (μM, value not given), biocide concentration 4 of 4
[6] = Gold section of Table 5, second of three gold concentrations (μM, value not given), biocide concentration 4 of 4
[7] = Gold section of Table 5, third of three gold concentrations (μM, value not given), biocide concentration 4 of 4
[8] = Silver 0.5 μM, 3rd of four biocide concentrations, E. coli
[9] = Silver 0.5 μM, 4th of four biocide concentrations, E. coli
[10] = Silver 1.0 μM, 3rd of four biocide concentrations, E. coli
[11] = Silver 1.0 μM, 4th of four biocide concentrations, E. coli
[12] = Silver 5.0 μM, 3rd of four biocide concentrations, E. coli
[13] = Silver 5.0 μM, 4th of four biocide concentrations, E. coli
[14] = 1st of 3 copper concentrations (value not shown), 1st of four biocide concentrations
[15] = 1st of 3 copper concentrations (value not shown), 2nd of four biocide concentrations
[16] = 1st of 3 copper concentrations (value not shown), 3rd of four biocide concentrations
[17] = 2nd of 3 copper concentrations (value not shown), 1st of four biocide concentrations
[18] = 2nd of 3 copper concentrations (value not shown), 2nd of four biocide concentrations
[19] = 3rd of 3 copper concentrations (value not shown), 1st of four biocide concentrations
[20] = 3rd of 3 copper concentrations (value not shown), 2nd of four biocide concentrations
[21] = 3rd of 3 copper concentrations (value not shown), 3rd of four biocide concentrations
[22] = Gold section of Table 5, first of three gold concentrations (μM, value not given), biocide concentration 2 of 4
[23] = Gold section of Table 5, first of three gold concentrations (μM, value not given), biocide concentration 3 of 4
[24] = Gold section of Table 5, second of three gold concentrations (μM, value not given), biocide concentration 2 of 4
[25] = Gold section of Table 5, second of three gold concentrations (μM, value not given), biocide concentration 3 of 4
[26] = Gold section of Table 5, third of three gold concentrations (μM, value not given), biocide concentration 2 of 4
[27] = Gold section of Table 5, third of three gold concentrations (μM, value not given), biocide concentration 3 of 4

SMILES: CCCCCCCCCCCCNC(=N)N [dodine]
- CDI (coefficient of drug interaction), copper mixed with biocide [1]: Tox
- CDI (coefficient of drug interaction), copper mixed with biocide [2]: Tox
- CDI (coefficient of drug interaction), copper mixed with biocide [3]: Tox
- CDI (coefficient of drug interaction), copper mixed with biocide [4]: Tox
- CDI (coefficient of drug interaction) [5]: Tox
- CDI (coefficient of drug interaction) [6]: Tox
- CDI (coefficient of drug interaction) [7]: Tox
- CDI (coefficient of drug interaction), silver + biocide [8]: Tox
- CDI (coefficient of drug interaction), silver + biocide [9]: Tox
- CDI (coefficient of drug interaction), silver + biocide [10]: Tox
- CDI (coefficient of drug interaction), silver + biocide [11]: Tox
- CDI (coefficient of drug interaction), silver + biocide [12]: Tox
- CDI (coefficient of drug interaction), silver + biocide [13]: Tox

SMILES: Nc1ccc(S(=O)(=O)Nc2ncccn2)cc1 [sulfadiazine]
- cell toxicity / growth curves with and without silver: enhanced cell toxicity

SMILES: O=c1ccc2ccccc2o1 [coumarin]
- CDI (coefficient of drug interaction) (Gold 50 μM, biocide concentration 4 of 4, E. coli): Tox

SMILES: NNC(N)=O [semicarbazide]
- CDI (coefficient of drug interaction), copper mixed with biocide [3]: Tox
- CDI (coefficient of drug interaction), silver + biocide [8]: Tox
- CDI (coefficient of drug interaction), silver + biocide [9]: Tox
- CDI (coefficient of drug interaction), silver + biocide [10]: Tox
- CDI (coefficient of drug interaction), silver + biocide [11]: Tox
- CDI (coefficient of drug interaction), silver + biocide [12]: Tox
- CDI (coefficient of drug interaction), silver + biocide [13]: Tox

SMILES: O=C1C=C2C(=CCOC2O)O1 (stereo not shown) [patulin]
- CDI (coefficient of drug interaction), copper mixed with biocide [14]: Tox
- CDI (coefficient of drug interaction), copper mixed with biocide [15]: Tox
- CDI (coefficient of drug interaction), copper mixed with biocide [16]: Tox
- CDI (coefficient of drug interaction), copper mixed with biocide [1]: Tox
- CDI (coefficient of drug interaction), copper mixed with biocide [17]: Tox
- CDI (coefficient of drug interaction), copper mixed with biocide [18]: Tox
- CDI (coefficient of drug interaction), copper mixed with biocide [2]: Tox
- CDI (coefficient of drug interaction), copper mixed with biocide [3]: Tox
- CDI (coefficient of drug interaction), copper mixed with biocide [19]: Tox
- CDI (coefficient of drug interaction), copper mixed with biocide [20]: Tox
- CDI (coefficient of drug interaction), copper mixed with biocide [21]: Tox
- CDI (coefficient of drug interaction), copper mixed with biocide [4]: Tox
- CDI (coefficient of drug interaction) [22]: Tox
- CDI (coefficient of drug interaction) [23]: Tox
- CDI (coefficient of drug interaction) [5]: Tox
- CDI (coefficient of drug interaction) [24]: Tox
- CDI (coefficient of drug interaction) [25]: Tox
- CDI (coefficient of drug interaction) [6]: Tox
- CDI (coefficient of drug interaction) [26]: Tox
- CDI (coefficient of drug interaction) [27]: Tox
- CDI (coefficient of drug interaction) [7]: Tox
- CDI (coefficient of drug interaction), silver + biocide (Silver 0.5 μM, 2nd of four biocide concentrations, E. coli): Tox
- CDI (coefficient of drug interaction), silver + biocide [8]: Tox
- CDI (coefficient of drug interaction), silver + biocide [9]: Tox
- CDI (coefficient of drug interaction), silver + biocide (Silver 1.0 μM, 2nd of four biocide concentrations, E. coli): Tox
- CDI (coefficient of drug interaction), silver + biocide [10]: Tox
- CDI (coefficient of drug interaction), silver + biocide [11]: Tox
- CDI (coefficient of drug interaction), silver + biocide (Silver 5.0 μM, 2nd of four biocide concentrations, E. coli): Tox
- CDI (coefficient of drug interaction), silver + biocide [12]: Tox
- CDI (coefficient of drug interaction), silver + biocide [13]: Tox

SMILES: Oc1ccccc1-c1ccccc1 [2-phenylphenol]
- CDI (coefficient of drug interaction), copper mixed with biocide [1]: Tox
- CDI (coefficient of drug interaction), copper mixed with biocide [3]: Tox
- CDI (coefficient of drug interaction), copper mixed with biocide [4]: Tox
- CDI (coefficient of drug interaction) (Gold 5 μM, biocide concentration 4 of 4, E. coli): Tox
- CDI (coefficient of drug interaction) (Gold 25 μM, biocide concentration 4 of 4, E. coli): Tox
- CDI (coefficient of drug interaction), silver + biocide [8]: Tox
- CDI (coefficient of drug interaction), silver + biocide [9]: Tox
- CDI (coefficient of drug interaction), silver + biocide [10]: Tox
- CDI (coefficient of drug interaction), silver + biocide [11]: Tox
- CDI (coefficient of drug interaction), silver + biocide [12]: Tox
- CDI (coefficient of drug interaction), silver + biocide [13]: Tox
- CDI (coefficient of drug interaction) ([…], biocide concentration 4 of 4, E. coli): Tox

SMILES: C[n+]1ccc(-c2cc[n+](C)cc2)cc1 [methyl viologen]
- CDI (coefficient of drug interaction), copper mixed with biocide [14]: 0.85
- CDI (coefficient of drug interaction), copper mixed with biocide [15]: 0.99
- CDI (coefficient of drug interaction), copper mixed with biocide [16]: Tox
- CDI (coefficient of drug interaction), copper mixed with biocide [1]: Tox
- CDI (coefficient of drug interaction), copper mixed with biocide [17]: 0.63
- CDI (coefficient of drug interaction), copper mixed with biocide [18]: 0.77
- CDI (coefficient of drug interaction), copper mixed with biocide [2]: Tox
- CDI (coefficient of drug interaction), copper mixed with biocide [3]: Tox
- CDI (coefficient of drug interaction), copper mixed with biocide [19]: 0.61
- CDI (coefficient of drug interaction), copper mixed with biocide [20]: 0.64
- CDI (coefficient of drug interaction), copper mixed with biocide [21]: Tox
- CDI (coefficient of drug interaction), copper mixed with biocide [4]: Tox
- CDI (coefficient of drug interaction) (Gold section of Table 5, first of three gold concentrations (μM, value not given), biocide concentration 1 of 4): 0.99
- CDI (coefficient of drug interaction) [22]: 1.07
- CDI (coefficient of drug interaction) [23]: 0.82
- CDI (coefficient of drug interaction) [5]: 0.08
- CDI (coefficient of drug interaction) (Gold section of Table 5, second of three gold concentrations (μM, value not given), biocide concentration 1 of 4): 1.01
- CDI (coefficient of drug interaction) [24]: 1.01
- CDI (coefficient of drug interaction) [25]: 0.66
- CDI (coefficient of drug interaction) [6]: 0.78
- CDI (coefficient of drug interaction) (Gold section of Table 5, third of three gold concentrations (μM, value not given), biocide concentration 1 of 4): 1.04
- CDI (coefficient of drug interaction) [26]: 0.98
- CDI (coefficient of drug interaction) [27]: 0.50
- CDI (coefficient of drug interaction) [7]: 0.28
- CDI (Silver 0.5 μM, biocide concentration 1 of 4): 0.89
- CDI (Silver 0.5 μM, biocide concentration 2 of 4): 0.73
- CDI (Silver 0.5 μM, biocide concentration 3 of 4): Tox
- CDI (Silver 0.5 μM, biocide concentration 4 of 4): Tox
- CDI (Silver 1.0 μM, biocide concentration 1 of 4): 0.48
- CDI (Silver 1.0 μM, biocide concentration 2 of 4): 0.20
- CDI (Silver 1.0 μM, biocide concentration 3 of 4): Tox
- CDI (Silver 1.0 μM, biocide concentration 4 of 4): Tox
- CDI (Silver 5.0 μM, biocide concentration 1 of 4): 0.07
- CDI (Silver 5.0 μM, biocide concentration 2 of 4): 0.01
- CDI (Silver 5.0 μM, biocide concentration 3 of 4): Tox
- CDI (Silver 5.0 μM, biocide concentration 4 of 4): Tox
